# Measurements: patent US20060194815A1, “Methods and compositions for modulating serum cortisol levels” (priority 2003, published 2006)
# Entries after “also recorded” stand apart in the source; their conditions may differ.
# What was measured:
# [1] = test system: H295R human adrenal tumor cells; assay: MTT cell viability / mitochondrial function, H295R cells; type: cell-based; conditions: H295R cells exposed to dbcAMP
# Description: Cell viability at the end of the incubation protocol described above was assessed using the mitochondrial integrity 3-(4,5-dimethylthiazol-2-yl)-2,5-diphenyl tetrazolium bromide (MTT) assay (Trevigen, Gaithersburg, Md.). Briefly, 10 l of the MTT solution were added to the cells in 100 l medium. After an incubation period of 4 hours, 100 l of detergent were added and cells were incubated overnight at 37° C. Formazan blue formation was quantified at 600 nm and 690 nm using the Victor quantitative detection spectrophotometer (EGG-Wallac, Gaithersburg, Md.) and the results expressed as (OD600-OD690).
# [2] = biological target: T1, cytochrome P-450SCC (Mus musculus, UniProt Q9QZ82); assay: 22R-hydroxycholesterol-induced 20-OH progesterone formation (P-450SCC activity) in Y1 cells; type: cell-based
# T1 construct: endogenous in cells; host or cells: Y1 mouse adrenal tumor cells
# T1 sequence (Q9QZ82 37-526): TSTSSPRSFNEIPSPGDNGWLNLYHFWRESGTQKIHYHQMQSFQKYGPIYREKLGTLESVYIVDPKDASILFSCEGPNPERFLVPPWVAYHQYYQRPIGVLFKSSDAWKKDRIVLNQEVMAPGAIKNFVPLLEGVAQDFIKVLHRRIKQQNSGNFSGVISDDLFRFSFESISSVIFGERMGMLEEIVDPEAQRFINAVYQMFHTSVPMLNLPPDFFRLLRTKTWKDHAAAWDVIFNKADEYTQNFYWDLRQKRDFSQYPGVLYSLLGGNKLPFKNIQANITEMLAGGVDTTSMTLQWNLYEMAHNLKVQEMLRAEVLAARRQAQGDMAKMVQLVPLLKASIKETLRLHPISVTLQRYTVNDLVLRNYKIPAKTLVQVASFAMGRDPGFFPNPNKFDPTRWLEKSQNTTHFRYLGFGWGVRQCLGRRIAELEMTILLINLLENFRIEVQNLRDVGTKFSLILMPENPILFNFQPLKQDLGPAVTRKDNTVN
# Description: Culture media were then changed and cells were stimulated with 1 mM dbcAMP and the treatment for 24 to 48 hours. […] The synthesis of 20-OH progesterone and progesterone in Y1 and MA-10 cell media respectively were measured by RIA (Brown et al., 1992). H295R human adrenal tumor cells were seeded in 48-well plates at 10^5 cells/well and incubated for 24 hours. […] At the end of the incubation time period, cells were treated with 1 mM dbcAMP for 48 hours. Cortisol levels in the media were determined by radioimmunoassay as previously described (Amri et al., 1996).
# [3] = test system: steroidogenesis acute regulatory protein (StAR); assay: Immunoblot of StAR protein levels in Y1 cells; type: cell-based, mouse; conditions: 1 μM procaine, 48 hour treatment, 3 hour dbcAMP
# Description: At the end of the treatment protocol described above, Y1 cells at 90% confluency were washed 2 times with PBS, sonicated 15 seconds in extraction buffer and centrifuged at 18,500 g for 15 minutes at 4° C. Pellets were resuspended in ice-cold lysis buffer (1% Nonidet 40 in extraction buffer), sonicated briefly, and incubated on ice for 1 hour. After centrifugation (22,500 g×30 min, 4° C.), the supernatant was mixed in sample buffer 6× (0.27 M SDS, 0.6 M dithiothreitol, 0.18 M bromphenol blue in 7 ml of 0.5 M Tris-HCl, pH 6.8, and 3 ml glycerol) and boiled for 5 minutes. Proteins were subjected to SDS-PAGE (4-20% gradient SDS polyacrylamide gel) and electrophoretically transferred onto nitrocellulose membranes. The transblot sheets were blocked with 5% non fat dry milk in 25 mM Tris HCl, pH 7.5, 150 mM NaCl, and 0.1% Tween 20 overnight at 4° C. Membranes were then incubated with appropriately diluted primary antibodies 1:800 for anti-P-450SCC (Research Diagnostics Inc. Flanders, N.J.) and 1:200 for anti-StAR (Amri et al., 1996), and the reaction was detected by a peroxidase-conjugated secondary antibody (Santa Cruz Biotechnology, Santa Cruz, Calif.) and enhanced chemiluminescence (Amersham Life, Arlington Heights, Ill.). The densities of the appropriate bands were determined using the OptiQuant Acquisition & Analysis software (Packard BioScience).
# [4] = test system: peripheral-type benzodiazepine receptor (PBR); assay: PBR radioligand binding assay ([3H]PK 11195) in procaine-treated cells; conditions: 1 μM procaine, 48 hour treatment
# Description: Radioligand binding assays were performed as previously described (Papadopoulos et al., 1990, J. Biol. Chem. 265, 3772-3779). In brief, cells were scrapped from culture flasks into PBS, dispersed by trituration, and centrifuged at 1200×g for 5 min. The cells were resuspended in PBS to a final concentration of 10-50 μg protein/100 μl. Saturation binding studies were performed in a final volume of 300 μl in the presence of the radioligand [^3H]PK 11195 (specific activity 83.5 Ci/mmol; NEN Life Science Products) at the indicated concentrations. Nonspecific binding was determined in the presence of 6 μM of the homologous non-radioactive ligand. After 180 min incubation at 4° C., the assays were stopped by filtration through Whatman GF/C filters (Clifton, N.J.) and washed with 10 ml PBS. Bound radioactivity was determined by liquid scintillation counting. Bound [^3H]PK 11195 and [^3H]cholesterol were quantified by liquid scintillation spectrometry. Dissociation constants (Kd), the number of binding sites (Bmax) and Hill coefficients (nH) for PK 11195 and cholesterol were determined by Curve-Fit (Prism version 3.0, GraphPad Software Inc., San Diego, Calif.).
# [5] = test system: HMG-CoA reductase mRNA; assay: HMG-CoA reductase mRNA expression by Q-PCR in UT-1 cells; type: cell-based, Chinese hamster; conditions: dbcAMP induced
# Description: After treatment, cells were stimulated with 1 mM dbcAMP for 24 hours. At the end of the incubation, total cell RNA was extracted using. RNA STAT-60 (Tel-Test Inc, Friendswood, Tex.) according to the manufacturer's instructions. HMG-CoA reductase mRNA was quantified by Q-PCR using the ABI Prism 7700 sequence detection system (Perlin-Elmer/Applied Biosystems, Foster City, Calif.). RT reaction was performed using TaqMan® Reverse Transcription Reagents with 1 g total RNA and random hexamers as primers for each reaction according to the manufacturer's instructions. For quantifying mouse HMG-CoA reductase mRNA with Q-PCR, the primers were designed according to GenBank Accession Number BC 019782 using PE/AB Primer Express software, which is specifically designed for the selection of primers and probes. The forward primer was 5′-[…]-3′ (22 nucleotides) and reverse primer was 5′-[…]-3′ (23 nucleotides), respectively. The primers were synthesized by Bio-Synthesis Inc. (Lewisville, Tex.). Reactions were performed in a reaction mixture consisting of a 20 l volume solution containing 10 l SYBR® Green PCR Master Mix and 1 l primers mix (5 M each) with 2 l cDNA.
structure (smiles),measurement,setting,value
CCN(CC)CCOC(=O)c1ccc(N)cc1 [procaine],dbcAMP-induced change of mitochondrial function (MTT),[1],reversed the effect of dbcAMP on mitochondrial function
same,dbcAMP-induced change of mitochondrial function (MTT),[1]; listed as Procaine,protected against the dbc-AMP-induced change of mitochondrial function
same,effect of 22R-hydroxycholesterol on steroidogenesis,[2],did not inhibit; also recorded: did not affect
same,levels of the mature 30 kDa StAR protein,[3],did not affect
same,levels of the mature 30 kDa StAR protein,[3]; listed as Procaine,had no effect
same,ligand binding characteristics / expression of PBR,[4],did not affect
same,PBR Kd of [3H]PK 11195 in procaine-treated cells,"[4]; control 1.8 nM, Kd of the radioligand, not of procaine",1.7 nM
same,PBR Bmax ([3H]PK 11195) in procaine-treated cells,[4]; control 27±3,29±4 pmol/mg protein
same,ligand binding characteristics / expression of PBR,[4]; listed as Procaine,had no effect
same,inhibition of HMG-CoA reductase mRNA expression,[5],minor and not significant
